# Reference: patent US11571404B2, “Compositions and methods for the treatment of liver diseases and disorders associated with one or both of hyperammonemia or muscle wasting” (priority 2017, dated 2023)
# Legend:
# [1] = system: C3A derivative clone of the HepG2 Hepatocellular Carcinoma cell line; assay: Hepatic albumin production in cirrhosis media, ELISA normalized to nuclei (Example 9); assay type: cell-based, human; settings: for Albumin/Nuclei (mean): 48 hours
# Experimental: Media composed of amino acids consistent with profiles of cirrhotic individuals was tested for effect on production of albumin. Effects of […], components and comparator compositions on albumin production were determined. Methods: The ability of […] to increase hepatocyte albumin production was assessed using the C3A derivative clone of the HepG2 Hepatocellular Carcinoma cell line (ATCC, CRL-10741). 2.0e4 cells per well were seeded on day 0 in a 96-well microplate (Corning; 3903) in Dulbecco's Modified Eagle Medium (DMEM, Corning) supplemented with 10% fetal bovine serum (Corning) and 0.2% Primocin (InVivoGen, San Diego, Calif.) and incubated for 24 hours at 37° C., 5% CO2. […] Cells were cultured for 48 hours at 37° C., 5% CO2, media was collected, cells were washed 1× in PBS, fixed in 4% paraformaldehyde, washed 2× in PBS, nuclei were stained with Hoechst 33342 according to manufacturer's instructions (Life Technologies, H3570) and then washed 2× in PBS. Media albumin levels were assessed by R&D Systems's DuoSet ELISA Development System for Human Serum Albumin (R&D Systems, DY1455) and nuclei were counted using Molecular Devices Image Express High Content Screening platform and pre-installed nuclei counting analysis pipeline. Albumin levels were normalized to total nuclei in order to derive a per cell albumin production ratio.
# primary human myotubes = assay: TNF induced myotube atrophy, MYOSCREEN platform (Example 10); assay type: cell-based; design: Myotube Area mean: unit not given here; settings: for Fusion Index mean / Myotube Area mean: TNFalpha 10 ng/mL, N=3
# Experimental: Methods: Experiment was performed using the […] platform (CYTOO, France). Briefly, […] is a proprietary technology based on micropatterning and defined microenvironments that establish highly mature primary human myotubes with substantial striation and low morphological variability. Primary cells derived from skeletal muscle of healthy human donors are differentiated to form myotubes (multinucleated syncytia) that are highly reminiscent of human muscle tissue. […] is a fully automated platform that interrogates multiple phenotypes relevant for muscle physiology including myotube area, fusion index, and total nuclei. On Day 0 expanded primary myoblasts from a healthy human donor were seeded at 10,000 cells per well for 24 hour at 37 deg C. […] Importantly, treatment groups were prepared in PBS and final concentration in all wells, including controls, was 10% PBS. On Day 2 cells were switched to Cirrhosis Media based on DMEM comprising 0.1% horse serum and 0.5× amino acids at ratios of plasma of cirrhosis (Kakazu et al., 2013) containing atrophy inducer TNFalpha (10 ng/mL) and again treated according to Day 1 and Table 16. On Day 6 cells were fixed with 5% Formalin for 30 minutes at room temperature. Fixed cells were processed for immunostaining with primary antibody against Troponin T to stain myotubes and Hoeschst dye for nuclei. Image acquisition was done at 10× magnification using Operetta High Content Imaging System and analysis was performed using a proprietary and dedicated algorithm on the Acapella High Content Imaging System (Perkin Elmer, CYTOO).
# [2] = dose 5X of concentration in cirrhosis media
# [3] = dose 10x of concentration in cirrhosis media
# [4] = dose 20X of concentration in cirrhosis media
# [5] = dose 30X of concentration in cirrhosis media
smiles,measurement,setting,value
"CC(C)C[C@H](N)C(=O)O [L, L-leucine]",Albumin/Nuclei (mean),[1]; Dose 5X of basal media concentrations,−0.087
same,Albumin/Nuclei (mean),[1]; Dose 10X of basal media concentrations,−0.116
same,Albumin/Nuclei (mean),[1]; Dose 20X of basal media concentrations,−0.219
same,Albumin/Nuclei (mean),[1]; Dose 40X of basal media concentrations,0.148
same,Effect on Albumin,[1]; over the dose curve 5X-40X,No Effect
same,Effect on Atrophy,"primary human myotubes; TNF induced myotube atrophy, overall call across doses",no effect
same,Fusion Index mean,primary human myotubes; [2],0.087
same,Myotube Area mean,primary human myotubes; [2],4499.140
same,Fusion Index mean,primary human myotubes; [3],0.094
same,Myotube Area mean,primary human myotubes; [3],4480.850
same,Fusion Index mean,primary human myotubes; [4],0.091
same,Myotube Area mean,primary human myotubes; [4],4679.729
same,Fusion Index mean,primary human myotubes; [5],0.092
same,Myotube Area mean,primary human myotubes; [5],4579.231
